Experimental data taken from PMC7985297 (Communications Biology, 2021).
“And” between values parts separate entries of the source, which are not always exact repeats. Identical values can stand only once.

What was measured:
full-length AR = molecular target: T1, full-length AR (Homo sapiens, UniProt P10275, T878A); assay: PSA(6.1 kb)-luciferase AR-driven reporter assay in LNCaP cells; format: cell-based; conditions: for fractional response (Fig. 5g): monotherapy or with 5 µM ATRA
T1 construct: Transcriptional activity of full-length AR was assessed in LNCaP cells; endogenous in cells; host or cells: LNCaP
T1 sequence (P10275 1-920 T878A): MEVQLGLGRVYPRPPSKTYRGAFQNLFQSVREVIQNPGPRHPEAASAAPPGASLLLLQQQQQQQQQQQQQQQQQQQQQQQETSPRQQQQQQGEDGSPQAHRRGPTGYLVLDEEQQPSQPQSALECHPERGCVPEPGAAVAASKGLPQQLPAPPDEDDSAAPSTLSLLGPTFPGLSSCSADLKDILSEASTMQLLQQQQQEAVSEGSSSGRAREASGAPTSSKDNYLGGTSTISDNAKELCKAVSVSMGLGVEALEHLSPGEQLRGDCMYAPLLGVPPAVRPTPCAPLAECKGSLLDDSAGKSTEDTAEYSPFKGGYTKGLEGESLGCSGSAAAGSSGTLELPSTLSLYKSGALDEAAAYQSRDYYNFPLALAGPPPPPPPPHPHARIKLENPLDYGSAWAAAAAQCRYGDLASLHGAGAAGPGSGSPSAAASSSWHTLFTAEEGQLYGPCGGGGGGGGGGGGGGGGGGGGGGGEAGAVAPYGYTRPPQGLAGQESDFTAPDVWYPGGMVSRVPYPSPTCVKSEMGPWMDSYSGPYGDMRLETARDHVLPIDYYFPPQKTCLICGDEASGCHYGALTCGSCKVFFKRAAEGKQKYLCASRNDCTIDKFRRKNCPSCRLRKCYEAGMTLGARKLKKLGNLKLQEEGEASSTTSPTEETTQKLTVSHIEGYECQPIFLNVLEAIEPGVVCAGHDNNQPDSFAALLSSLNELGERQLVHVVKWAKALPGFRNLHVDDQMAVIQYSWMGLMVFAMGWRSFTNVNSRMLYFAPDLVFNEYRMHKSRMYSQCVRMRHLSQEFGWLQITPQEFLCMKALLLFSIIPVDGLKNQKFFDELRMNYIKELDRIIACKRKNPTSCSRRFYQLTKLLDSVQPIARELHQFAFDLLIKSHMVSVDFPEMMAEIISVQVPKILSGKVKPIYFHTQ

[1] = molecular target: T2, human AR NTD (AR1–558) fused to Gal4DBD (Gal4-ARN) (Homo sapiens, UniProt P10275); assay: AR NTD transactivation assay (Gal4-ARN) in LNCaP cells; format: cell-based; conditions: EPI-002 25 μM, juglone 20 μM, ATRA 10 μM, 24 h
T2 construct: construct encoding the human AR1–558 of the NTD fused to a Gal4DBD (Gal4-ARN); expressed in transfected cells; host or cells: LNCaP
T2 sequence (P10275 1-558): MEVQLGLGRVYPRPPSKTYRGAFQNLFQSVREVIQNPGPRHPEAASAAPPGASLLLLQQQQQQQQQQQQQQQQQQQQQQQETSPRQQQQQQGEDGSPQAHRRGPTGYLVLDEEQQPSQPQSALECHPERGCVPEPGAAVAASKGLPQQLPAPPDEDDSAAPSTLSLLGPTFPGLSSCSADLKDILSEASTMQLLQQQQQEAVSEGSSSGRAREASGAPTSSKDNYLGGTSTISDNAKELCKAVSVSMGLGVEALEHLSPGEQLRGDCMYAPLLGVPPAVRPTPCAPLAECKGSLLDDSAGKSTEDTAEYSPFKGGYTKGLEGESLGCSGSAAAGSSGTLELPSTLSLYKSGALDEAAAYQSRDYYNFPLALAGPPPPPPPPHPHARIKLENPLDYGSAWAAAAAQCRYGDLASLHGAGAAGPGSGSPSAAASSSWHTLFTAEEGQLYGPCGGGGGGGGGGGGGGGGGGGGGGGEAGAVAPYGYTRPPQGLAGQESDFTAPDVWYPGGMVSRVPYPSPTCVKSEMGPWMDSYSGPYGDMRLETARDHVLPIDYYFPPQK
Source text: The remaining putative Pin1-binding sites are within the intrinsically disordered AR NTD that contains transcription activation units, Tau-1 and Tau-5, to mediate androgen-dependent and androgen-independent transactivation, respectively[5],[30]. The loss of AR-LBD shifts the location of transcriptional activity from Tau-1 with androgen, to Tau-5 in the absence of LBD[30].
Error bars show the mean ± s.e.m. *P < 0.05, **P < 0.01, ***P < 0.001; ns not significant.

LN95 cells [2] = assay: BrdU incorporation assay, LN95; format: cell-based, human; conditions: ENZ 10 µM, EPI-002 25 µM, JUG 20 µM, ATRA 10 µM
Protocol: (§1) Cells were treated with the inhibitors and stimulated with 1 nM of R1881 (+) or vehicle (−) for 24 to 72 h. Each data point represents the average from an independent experiment where the error bars show the mean ± s.e.m.
(§2) BrdU incorporation was determined with the colorimetric BrdU ELISA kit (Roche Diagnostics), according to the manufacturer’s protocol. In brief, cells were seeded in 96-well plates (LNCaP, 5000/well; LN95, 8000/well; PC-3 and DU145, 4000/wells) in media with reduced serum (0.5–1%). On the following day, cells were pre-treated with test compounds for 1 h and then incubated with 0.1 nM of R1881. After the indicated incubation times, cells were labeled with 10 μM of BrdU for 2 h and then fixed for the assay.

PC-3 cells = assay: BrdU incorporation assay, PC-3; format: cell-based, human; conditions: − R1881; ENZ 10 µM, EPI-002 25 µM, JUG 20 µM, ATRA 10 µM
Protocol: as §1, §2

DU145 cells = assay: BrdU incorporation assay, DU145; format: cell-based, human; conditions: − R1881; ENZ 10 µM, EPI-002 25 µM, JUG 20 µM, ATRA 10 µM
Protocol: as §1, §2

LN95 cells [3] = assay: Colony formation of LN95 cells; format: cell-based, human; conditions: LN95, ATRA 5 or 10 µM, EPI-002 25 µM, treated 24 hours then re-plated
Protocol: page 5: Supplementary Figure 5 a b […] (a) Representative images of colonies from LN95 cells after […] EPI-002. After treating with compounds for 24 hours, the media was removed, and 500 -1,000 cells were re-plated in 6-well plates. Colonies were fixed with 4% paraformaldehyde, stained with a 0.1% crystal violet solution, and then imaged. […]

[4] = led to excessive pill burden; cited from earlier work
LN95 cells [5] = assay: Senescence-associated β-galactosidase staining, LN95; conditions: LN95, ATRA 10 μM, EPI-002 25 μM, 3 days
Protocol: β-galactosidase activity at suboptimal pH (6.0) was used as a marker to detect cellular senescence[42]. Cells were seeded in four-well chamber slides at a density of 8000-10,000 cells. […] Three days later, the media was removed and cells were fixed with 2% formaldehyde/0.2% glutaraldehyde for 10 min at room temperature, washed with PBS, and then incubated with freshly prepared β-Gal staining solution (Cell Signaling) titrated to pH 6.0. Staining was optimal after incubating with the β-Gal solution at 37 °C for 16–18 h. After staining, the slides were washed twice with PBS, once with absolute methanol, and then mounted with 50% glycerol/PBS. The percentage of β-galactosidase-positive cells were counted with ImageJ using the Cell Counter plugin. A total of nine images containing 100–300 cells were scored to determine the percentages of positive cells.

AR-V7 = AR-V7 (Homo sapiens, UniProt P10275); assay: Transcriptional reporter assay for AR-V7 (V7BS3-luciferase) in LNCaP cells; conditions: enzalutamide 10 µM, EPI-002 25 µM, juglone 20 µM, ATRA 10 µM, 24 h
Chain of AR-V7 (P10275 1-644 isoform P10275-3): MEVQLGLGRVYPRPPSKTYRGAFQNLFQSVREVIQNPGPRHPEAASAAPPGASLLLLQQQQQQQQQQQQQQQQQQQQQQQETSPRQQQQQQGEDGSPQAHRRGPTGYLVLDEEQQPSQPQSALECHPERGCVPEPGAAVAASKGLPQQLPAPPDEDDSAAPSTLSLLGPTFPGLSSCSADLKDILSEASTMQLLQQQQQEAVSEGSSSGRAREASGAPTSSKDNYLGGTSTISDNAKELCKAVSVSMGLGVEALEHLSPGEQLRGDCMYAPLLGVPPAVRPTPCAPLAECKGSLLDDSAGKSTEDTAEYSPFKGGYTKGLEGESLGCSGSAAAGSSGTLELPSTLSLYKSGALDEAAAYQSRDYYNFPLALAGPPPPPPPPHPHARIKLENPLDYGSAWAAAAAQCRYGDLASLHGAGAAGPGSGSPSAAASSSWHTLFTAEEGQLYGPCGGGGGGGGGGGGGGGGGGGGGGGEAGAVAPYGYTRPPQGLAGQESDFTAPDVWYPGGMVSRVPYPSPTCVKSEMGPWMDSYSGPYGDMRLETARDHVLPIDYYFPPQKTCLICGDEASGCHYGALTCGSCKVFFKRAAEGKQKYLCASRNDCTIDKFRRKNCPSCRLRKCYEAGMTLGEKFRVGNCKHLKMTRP

inhibition of reporter activity at highest concentration (full-length AR; 40 µM of ralaniten): ~ 98%
fractional response (Fig. 5g) (full-length AR; EPI-002 20 μM): 0.8041 and 0.7145 and 0.7078 and 0.8391
fractional response (Fig. 5g) (full-length AR; EPI-002 40 μM): 0.9915 and 0.9757 and 0.9847 and 0.9439
effect on IL-6-induced transactivation of AR NTD (Gal4-ARN) ([1]; IL-6 50 ng/mL): both blocked
effect on forskolin-induced transactivation of AR NTD (Gal4-ARN) ([1]; forskolin 25 μM): both blocked
Compound: CC(C)(c1ccc(OC[C@H](O)CO)cc1)c1ccc(OC[C@H](O)CCl)cc1 [ralaniten]
effect on proliferation of LN95 cells (LN95 cells [2]): attenuated the proliferation of LN95 cells
BrdU incorporation, PC-3 (Fig. 4c) (PC-3 cells): 0.683 and 1.048 and 0.96 and 1.348
BrdU incorporation, DU145 (Fig. 4d) (DU145 cells): 0.692 and 0.859 and 0.62
effect on colony formation (LN95 cells [3]): significantly reduced the number of colonies
pharmacokinetics in clinical testing [4]: poor pharmacokinetics
SA β-gal-positive cells (LN95 cells [5]): 31%
effect on AR-V7-induced V7BS3-luciferase reporter activity (AR-V7): decreased AR-V7-induced reporter activity
